Test system: corn
Experiment: Field trial: esterase on urea with or without NBPT, corn yield
Type: in vivo
Conditions: corn, NBPT 64 fl oz/ton on Urea (135 lb/A Nitrogen), no EstA
Protocol: Esterase A (EstA) from Bacillus subtilis (SEQ ID NO:254) was produced via fermentation of a recombinantly produced enzyme in Bacillus subtilis. 1, 2, or 3 fl oz of fermentation product was applied onto 135 lb N/A (nitrogen equivalent per acre) urea fertilizer in a concrete mixer, and allowed to mix for 1 minute. A urea control treatment without fermentation media was also created. An addition treatment that contained 64 fl oz/ton N-Butyl-thiophosphoric triamide (NBPT) nitrogen stabilizer or 64 fl oz/ton NBPT nitrogen stabilizer with 3 fl oz/A EstA fermentation product was also included in the trial. Urea, alone or with fermentation media was distributed across 4 small replicated plots each prior to planting of corn with 4 replicates of 400 ft2 each at each site.

CCCCNP(N)(N)=S [NBPT, N-Butyl-thiophosphoric triamide, reference compound]
Yield (base control 188.2): 191.2 Bu/A
Yield (base control 11830.4): 12022.3 Kg/ha

Source: US20240324599A1, “PESTICIDAL ENZYMES FOR USE ON NEMATODES, INSECTS, AND MOLLUSKS” (priority 2023, published 2024)
